Data: ChEMBL document CHEMBL4350967, “The Trifluoromethyl Group as a Bioisosteric Replacement of the Aliphatic Nitro Group in CB1 Receptor Positive Allosteric Modulators” (J Med Chem, 2019)
Active and inactive are the calls of the source. No cut-off for these calls is given here.

Legend:
Cannabinoid receptor 1 [1] = biological target: T1, Cannabinoid receptor 1 (Homo sapiens, UniProt P21554); assay: Positive allosteric modulation of human CB1 receptor expressed in CHOK1 cells assessed as increase in CP55940-induced beta-arrestin recruitment preincubated for 30 mins followed by CP55940 addition and measured after 90 to 180 mins by PathHunter assay; type: cell-based
T1 sequence (P21554 whole entry): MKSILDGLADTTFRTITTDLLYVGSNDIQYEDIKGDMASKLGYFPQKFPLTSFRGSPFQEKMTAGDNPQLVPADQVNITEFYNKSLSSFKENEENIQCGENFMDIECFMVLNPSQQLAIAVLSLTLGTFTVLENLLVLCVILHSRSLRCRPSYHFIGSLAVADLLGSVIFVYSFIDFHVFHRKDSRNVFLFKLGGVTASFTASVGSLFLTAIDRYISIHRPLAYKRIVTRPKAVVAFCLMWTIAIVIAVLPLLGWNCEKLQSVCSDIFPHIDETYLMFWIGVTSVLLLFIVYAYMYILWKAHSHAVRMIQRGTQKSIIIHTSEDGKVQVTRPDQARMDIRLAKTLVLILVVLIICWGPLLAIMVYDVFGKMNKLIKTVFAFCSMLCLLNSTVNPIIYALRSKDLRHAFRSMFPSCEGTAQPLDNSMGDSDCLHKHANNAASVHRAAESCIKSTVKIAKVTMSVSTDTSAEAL

Cannabinoid receptor 1 [2] = biological target: T1, Cannabinoid receptor 1; assay: Agonist activity at human CB1 receptor expressed in CHOK1 cells assessed as induction of beta-arrestin recruitment measured after 30 mins by PathHunter assay; type: cell-based
[3] = Half life in human liver microsomes at 3 uM in presence of NADPH by LC-MS/MS analysis; type: ADME, Microsome
[4] = Half life in rat liver microsomes at 3 uM in presence of NADPH by LC-MS/MS analysis; type: ADME, Microsome
[5] = Half life in mouse liver microsomes at 3 uM in presence of NADPH by LC-MS/MS analysis; type: ADME, Microsome
Cannabinoid receptor 1 [6] = biological target: T1, Cannabinoid receptor 1; assay: Agonist activity at human Gi/Go-coupled CB1 receptor expressed in CHOK1 cells assessed as inhibition of forskolin-stimulated cAMP production measured after 30 mins by Hit-hunter assay
Cannabinoid receptor 1 [7] = biological target: T1, Cannabinoid receptor 1; assay: Agonist activity at human Gi/Go-coupled CB1 receptor expressed in CHOK1 cells assessed as inhibition of forskolin-stimulated cAMP production measured after 30 mins by Hit-hunter assay relative to CP55940; type: cell-based; conditions: 0.5 h
Cannabinoid receptor 1 [8] = biological target: T1, Cannabinoid receptor 1
Cannabinoid receptor 1 [9] = biological target: T1, Cannabinoid receptor 1; assay: Positive allosteric modulation of human CB1 receptor expressed in CHOK1 cells assessed as increase in CP55940-induced beta-arrestin recruitment at 500 nM preincubated for 30 mins followed by CP55940 addition and measured after 90 to 180 mins by PathHunter assay relative to CP55940; type: cell-based
Cannabinoid receptor 1 [10] = biological target: T1, Cannabinoid receptor 1; assay: Positive allosteric modulation of human CB1 receptor expressed in CHOK1 cells assessed as increase in CP55940-induced beta-arrestin recruitment preincubated for 30 mins followed by CP55940 addition and measured after 90 to 180 mins by PathHunter assay relative to CP55940; type: cell-based
Mus musculus [11] = assay: Psychoactive effect in C57BL/6J mouse assessed as effect on locomotor activity by measuring change in distance travelled at 40 mg/kg, ip measured after 30 mins; type: ADME, organism-based; conditions: in vivo, 0.5 h
Cannabinoid receptor 1 [12] = biological target: T1, Cannabinoid receptor 1; assay: Positive allosteric modulation of human Gi/Go-coupled CB1 receptor expressed in CHOK1 cells assessed as increase in CP55940-induced inhibition of forskolin-stimulated cAMP production preincubated for 30 mins followed by CP55940 addition and measured after 30 to 60 mins by Hit-hunter assay relative to CP55940; type: functional, cell-based
Mus musculus [13] = assay: Psychoactive effect in C57BL/6J mouse assessed as effect on locomotor activity by measuring change in immobility time at 40 mg/kg, ip measured after 30 mins; type: ADME, organism-based; conditions: in vivo, 0.5 h
Mus musculus [14] = assay: Psychoactive effect in C57BL/6J mouse assessed as change in immobility time at 40 mg/kg, ip measured after 30 mins by catalepsy bar test; type: ADME, organism-based; conditions: in vivo, 0.5 h
Mus musculus [15] = assay: Psychoactive effect in C57BL/6J mouse assessed as antinociceptive effect at 40 mg/kg, ip measured after 30 mins by warm water tail withdrawal assay; type: ADME, organism-based; conditions: in vivo, 0.5 h
Mus musculus [16] = assay: Psychoactive effect in C57BL/6J mouse assessed as hypothermia by measuring change in rectal temperature at 40 mg/kg, ip measured after 30 mins; type: ADME, organism-based; conditions: in vivo, 0.5 h
[17] = biological target: Cannabinoid receptor 1 (Mus musculus) (UniProt P47746); assay: Positive allosteric modulation of CB1 receptor in mouse brain membranes assessed as increase in [3H]CP55940 binding at 1 uM measured after 60 mins relative to control; type: cell membranes
Chain of Cannabinoid receptor 1 (Mus musculus) (P47746 whole entry): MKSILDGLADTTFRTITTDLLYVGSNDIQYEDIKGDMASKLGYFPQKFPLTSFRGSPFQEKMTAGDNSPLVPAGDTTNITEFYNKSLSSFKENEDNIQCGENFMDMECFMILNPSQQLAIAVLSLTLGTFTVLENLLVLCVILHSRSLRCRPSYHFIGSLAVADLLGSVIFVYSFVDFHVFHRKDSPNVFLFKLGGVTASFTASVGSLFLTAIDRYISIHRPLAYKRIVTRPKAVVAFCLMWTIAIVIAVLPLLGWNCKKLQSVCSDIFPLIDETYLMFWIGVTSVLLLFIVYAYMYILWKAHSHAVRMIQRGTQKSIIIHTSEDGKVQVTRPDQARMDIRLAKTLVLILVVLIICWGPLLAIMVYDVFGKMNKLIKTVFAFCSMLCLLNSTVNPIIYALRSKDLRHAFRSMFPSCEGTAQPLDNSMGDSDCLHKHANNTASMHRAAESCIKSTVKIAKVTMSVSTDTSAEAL

Mus musculus [18] = assay: Enhancement of CP55940-induced antinociceptive activity in C57BL/6J mouse assessed as increase in tail withdrawal latency at 40 mg/kg, ip pretreated for 15 mins followed by CP55940 addition and measured after 30 mins by warm water tail withdrawal assay; type: functional, organism-based
Mus musculus [19] = assay: Antiallodynic activity in C57BL/6J mouse model of CCI-induced neuropathic pain assessed as reduction in mechanical sensitivity in ipsilateral paw at 40 mg/kg, ip by Von frey filament test; type: functional, organism-based; conditions: TDE = time-dependent effect
Mus musculus [20] = assay: Antiallodynic activity in C57BL/6J mouse model of CCI-induced neuropathic pain assessed as reduction in mechanical sensitivity in contralateral paw at 40 mg/kg, ip by Von frey filament test; type: functional, organism-based; conditions: TDE = time-dependent effect
Cannabinoid receptor 1 [21] = biological target: T1, Cannabinoid receptor 1; assay: Positive allosteric modulation of human CB1 receptor expressed in CHOK1 cells assessed as increase in CP55940-induced beta-arrestin recruitment at 300 nM preincubated for 30 mins followed by CP55940 addition and measured after 90 to 180 mins by PathHunter assay relative to CP55940; type: cell-based
Cannabinoid receptor 1 [22] = biological target: T1, Cannabinoid receptor 1; assay: Positive allosteric modulation of human CB1 receptor expressed in CHOK1 cells assessed as increase in CP55940-induced beta-arrestin recruitment at 1000 nM preincubated for 30 mins followed by CP55940 addition and measured after 90 to 180 mins by PathHunter assay relative to CP55940; type: cell-based

Activity (Cannabinoid receptor 1 [9]) [%] | SMILES | EC50 (Cannabinoid receptor 1 [1]) [µM] | EC50 (Cannabinoid receptor 1 [2]) [µM] | EC50 (Cannabinoid receptor 1 [6]) [µM] | Emax (Cannabinoid receptor 1 [7]; read-out: Emax) [%] | EC50 (Cannabinoid receptor 1 [8]) [µM] | Emax (Cannabinoid receptor 1 [10]) [%] | Emax (Cannabinoid receptor 1 [12]) [%] | Activity [17] [%] | further results
 | N#Cc1ccc2c([C@@H](CC(F)(F)F)c3cccs3)c(-c3ccccc3)[nH]c2c1 | 0.363 | 0.828 | 0.029 | 84 | 0.017 |  |  |  | t1/2 [3]: 72.3 min; t1/2 [4]: 34.9 min; t1/2 [5]: 26.5 min
 | N#Cc1ccc2c(C(CC(F)(F)F)c3cccs3)c(-c3ccccc3)[nH]c2c1 (racemic) | 0.177 | 0.647 |  |  |  |  |  |  | Activity (Mus musculus [18]): Active; Activity (Mus musculus [11]): Non-Toxic; Activity (Mus musculus [19]): Tde; Activity (Mus musculus [20]): Tde; Activity (Mus musculus [13]): Non-Toxic; Activity (Mus musculus [14]): Non-Toxic; Activity (Mus musculus [15]): Non-Toxic; Activity (Mus musculus [16]): Non-Toxic
> 50 | Cc1ccc2c(C(C(=O)C(F)(F)F)c3ccccc3)c(-c3ccccc3)[nH]c2c1 (racemic) |  |  |  |  |  |  |  |  | Activity (Cannabinoid receptor 1 [21]): 50 to 100%
> 50 | Cc1ccc2c(C(CC(F)(F)F)c3ccccc3)c(-c3ccccc3)[nH]c2c1 (racemic) |  |  |  |  |  |  |  |  | Activity (Cannabinoid receptor 1 [21]): 50 to 100%
 | N#Cc1ccc2c(C(C[N+](=O)[O-])c3cccs3)c(-c3ccccc3)[nH]c2c1 (single isomer, unassigned; (+)) [listing 1 of 2 here] | 0.863 | > 10 | 0.251 | 96 | 0.181 |  |  |  | 
 | N#Cc1ccc2c(C(C[N+](=O)[O-])c3cccs3)c(-c3ccccc3)[nH]c2c1 (single isomer, unassigned; (+)) [listing 2 of 2 here] |  |  |  |  |  | 51 | 102 | 99 | Activity (Cannabinoid receptor 1 [22]): > 50%
 | N#Cc1ccc2c(C(C[N+](=O)[O-])c3cccs3)c(-c3ccccc3)[nH]c2c1 (single isomer, unassigned; (-)) [listing 1 of 2 here] | 0.664 | > 10 | 0.046 |  | 0.036 |  |  |  | Emax (Cannabinoid receptor 1 [7]): 97%
 | N#Cc1ccc2c(C(C[N+](=O)[O-])c3cccs3)c(-c3ccccc3)[nH]c2c1 (single isomer, unassigned; (-)) [listing 2 of 2 here] |  |  |  |  |  | 117 | 99 | 108 | Activity (Cannabinoid receptor 1 [22]): > 50%

SMILES | Activity (Cannabinoid receptor 1 [9]) [%] | EC50 (Cannabinoid receptor 1 [1]) [µM] | EC50 (Cannabinoid receptor 1 [2]) [µM] | EC50 (Cannabinoid receptor 1 [6]) [µM] | Emax (Cannabinoid receptor 1 [7]; read-out: Emax) [%] | EC50 (Cannabinoid receptor 1 [8]) [µM] | Emax (Cannabinoid receptor 1 [10]) [%] | Emax (Cannabinoid receptor 1 [12]) [%] | Activity [17] [%] | further results
Cc1ccc2c(C(C[N+](=O)[O-])c3cccs3)c(-c3ccccc3)[nH]c2c1 (racemic) | > 50 | 0.283 | 0.777 | 0.032 | 94 | 0.018 | 106 | 98 | 127 | t1/2 [3]: 41.2 min; t1/2 [4]: 6.4 min; t1/2 [5]: 10.4 min; Activity (Mus musculus [11]): Non-Toxic; Activity (Mus musculus [13]): Non-Toxic; Activity (Mus musculus [14]): Non-Toxic; Activity (Mus musculus [15]): Non-Toxic; Activity (Mus musculus [16]): Non-Toxic
